Assay results as given in article PMC5517430, “2,3,7,8-Tetrachlorodibenzo-p-dioxin (TCDD)-elicited effects on bile acid homeostasis: Alterations in biosynthesis, enterohepatic circulation, and microbial metabolism” (Scientific Reports, 2017).
Values joined by “and” are separate entries in the source; they are usually repeats but may differ in a detail not shown here. Equal values may be shown once.

Legend:
[1] = set-up: method as in PMID 19660807, PMID 8145287; conditions: humans; cited from earlier work
bile acids = experiment: HRAM-LC-MS analysis of bile acids in liver, serum and feces; type: in vivo, mouse; conditions: male mice
Procedure: Serum (10 µL) was added to 10 µL of a 20 ng/µL stock solution of deuterated (d4) glycochenodeoxycholic acid (GCDCA, from Steraloids, Inc.) in methanol, and extracted with ice-cold methanol as previously described. Frozen liver samples (50 mg) or dried fecal pellets (50 mg) were combined with 10 µL of 20 ng/µL d4-GCDCA stock solution and 1.0 mL of ice-cold methanol, and homogenized with 0.5 mm zirconium oxide beads using an air-cooled Bullet Blender (NextAdvance). Extracts were dried under vacuum, reconstituted in 2.0 mL of 50% methanol, filtered through 0.2 µm nylon membranes (Pall Life Sciences), and stored at −80 °C.
Bile acids were analyzed by high resolution/accurate mass (HRAM)-LC-MS using an Agilent 1260 capillary HPLC coupled to a Thermo Scientific LTQ-Orbitrap Velos mass spectrometer. Extracts (2 µL) were injected into water containing 0.1% formic acid, and loaded onto an inline peptide Opti-Trap (Optimize Technologies) for 3.0 min at 5 µL/min for desalting and concentration. Bile acids were then eluted by a 30 min water/acetonitrile gradient from 98% water containing 0.1% formic acid to 95% acetonitrile containing 0.1% formic acid (modified from ref. [73]) and separated by a ProntoSil C18AQ 200 µm × 50 mm, 3 u column (nanoLCMS Solutions) at a flow rate of 2 µL/min. The column eluent was introduced to the LTQ-Orbitrap Velos mass spectrometer by an Advance nano-ESI source (Michrom BioResources) at a spray voltage of −1.7 kV. High resolution (R = 100,000 at 400 m/z) negative ion mass spectra were collected over 300–900 m/z. The ion transfer tube of the mass spectrometer was maintained at 250 °C, and the S-lens was set to 50%. Appropriate sample dilution factors were determined empirically to ensure a linear range of detector response. Chromatographic peak alignment, feature detection, quantitation and bile acid identification were performed using MAVEN[75] and SECD-LIMSA[76] software. All bile acids were identified by comparison of retention time and accurate mass data against reference standards. Relative quantitation was performed against the deuterated GCDCA internal standard. TCDD-elicited changes in bile acid species are reported as fold changes relative to vehicle controls.

[2] = system: intestine of male C57BL/6 mice; experiment: Sugar probe intestinal para-cellular permeability (UPLC-MS/MS of urine); type: in vivo, mouse; conditions: 30 µg/kg TCDD every 4 d, 26 d after initial dose
Procedure: At 26d after the initial dose (PND54), mice were fasted for 4 h (without access to food or water) prior to oral gavage with 150 µL of a solution containing 100 mg sucrose, 12 mg lactulose, 8 mg mannitol, and 6 mg sucralose. Urine from each mouse was collected over a 5 h period, flash frozen, and combined prior to analysis. Urine was diluted in 95% acetonitrile/5% water: 100-fold for mannitol detection, 200-fold for sucrose and lactulose detection, and 500-fold for sucralose detection. Sugar probe recovery was measured using ultra high performance liquid chromatography-tandem mass spectrometry (UPLC-MS/MS), performed at the MSU RTSF Mass Spectrometry and Metabolomics Core (https://rtsf.natsci.msu.edu/mass-spectrometry/). Diluted urine samples were injected onto an Acquity UPLC BEH Amide column (1.7 µm, 2.1 × 100 mm) (Waters, Milford, MA) maintained at 50 °C on a Waters ACQUITY UPLC systems (Waters). Mobile phase A was 50 mM ammonium acetate buffer (pH = 9.6) and mobile phase B was acetonitrile. […]
Data analysis including peak integration was performed using MAVEN[75]. […] Fractional excretion of each probe was calculated using: (probe concentration from MS X total urine volume excreted)/probe input. […]

[3] = system: gallbladder of male C57BL/6 mice; experiment: Gallbladder volume (micro-caliper, ellipsoid); type: in vivo, mouse; conditions: 30 µg/kg TCDD every 4 d for 28 d
Procedure: At 25d after the initial dose (PND53), fecal pellets from the previous 24 hours (h) were collected from each cage (4 mice per cage) and stored at −80 °C. At 28d after the initial exposure (PND56), mice (fasted for 6 h) were weighed and blood was collected from the submandibular vein prior to cervical dislocation. The gallbladder length, width, and depth were measured using a micro-caliper. Its volume was calculated assuming an ellipsoid shape: volume (µL) = length (mm) × width (mm) × depth (mm) × π/6[63], [64]. The distal ileum (10 cm section extending from the caecum toward the jejunum) was removed, flushed with Ca^2+/Mg^2+-free phosphate buffered saline (PBS; Sigma), and opened longitudinally. The epithelial lining was scraped into a vial containing TRIzol (Invitrogen, Carlsbad, CA), frozen in liquid nitrogen, and stored at −80 °C. Liver, gonadal white adipose tissue (gWAT), and brown adipose tissue were removed, weighed, frozen in liquid nitrogen, and stored at −80 °C. Serum alkaline phosphatase (ALP) activity was determined using a commercial kit (Pointe Scientific, Canton, MI).

[4] = liver, 10 µg/kg TCDD every 4 d for 28 d, relative to vehicle
[5] = liver, 30 µg/kg TCDD every 4 d for 28 d, relative to vehicle
[6] = liver, dose not stated, 3–30 µg/kg TCDD
[7] = liver, dose-dependent, 3–30 µg/kg TCDD
[8] = serum, 30 µg/kg TCDD every 4 d for 28 d, relative to vehicle

Clc1cc2c(cc1Cl)Oc1cc(Cl)c(Cl)cc1O2 [TCDD, 2,3,7,8-tetrachlorodibenzo-p-dioxin]
Half-life [1]: 1–11 years
Deoxycholic acid disulfate DCA-di-SO4, Fold Change FECES (bile acids; feces, 30 µg/kg TCDD, relative to vehicle, n = 2 cages): 4.9 fold
Taurolithocholic acid TLCA, Fold Change FECES (bile acids; feces, 30 µg/kg TCDD, relative to vehicle, n = 2 cages, ∞ = detected in treated animals but not controls): undetectable in controls to detectable in treated mice
Fecal cholic acid 7-sulfate (CA-7-SO4), fold decrease (bile acids; feces, 30 µg/kg TCDD): 55.2 fold
Fecal taurocholic acid 3-sulfate (TCA-3-SO4), fold decrease (bile acids; feces, 30 µg/kg TCDD): 10.3 fold
Fecal α-MCA, fold decrease (bile acids; feces, 30 µg/kg TCDD): 10.3 fold
Total fecal bile acids, fold decrease (bile acids; feces, 30 µg/kg TCDD): 2.8 fold
Taurolithocholic acid TLCA, Fold Change LIVER (bile acids; [4]): 72.1 fold
Total Bile Acids, Fold Change LIVER (bile acids; [4]): 2.1 fold
Cholic acid CA, Fold Change LIVER (bile acids; [5]): 4.7 fold
Taurolithocholic acid TLCA, Fold Change LIVER (bile acids; [5]): > 200 fold and 233.8 fold
Total Bile Acids, Fold Change LIVER (bile acids; [5]): 4.6 fold
Effect on hepatic CDCA (bile acids; liver, 3–30 µg/kg TCDD): no effect
Effect on hepatic α/β-MCA (bile acids; liver, 3–30 µg/kg TCDD): no effect
Hepatic glycocholic acid (GCA), fold increase (bile acids; [6]): 3.9 fold
Hepatic tauro-α-muricholic acid (T-α-MCA), fold increase (bile acids; [6]): 3.7 fold
Hepatic taurocholic acid (TCA), fold increase (bile acids; [6]): 9.7 fold
Total hepatic conjugated primary bile acid levels, max fold increase (bile acids; [7]): 4.7 fold
Total hepatic levels of conjugated secondary bile acids, max fold increase (bile acids; [7]): 77.7 fold
Cholic acid CA, Fold Change SERUM (bile acids; [8]): 58.2 fold
Deoxycholic acid DCA, Fold Change SERUM (bile acids; [8]): 79.7 fold
Glycocholic acid GCA, Fold Change SERUM (bile acids; [8]): 134.4 fold
Muricholic acid (α) α-MCA, Fold Change SERUM (bile acids; [8]): 97.0 fold
Muricholic acid (β) β-MCA, Fold Change SERUM (bile acids; [8]): 52.8 fold
Taurocholic acid TCA, Fold Change SERUM (bile acids; [8]): 298.9 fold
Total Bile Acids, Fold Change SERUM (bile acids; [8]): 45.4 fold
Permeability of the small intestine (lactulose-to-mannitol ratio) [2]: unaffected
Gallbladder volume, fold increase compared to controls [3]: 2.5 fold
